Test results published in patent US20090192192A1, “INHIBITORS OF BIOFILM FORMATION OF GRAM-POSITIVE AND GRAM-NEGATIVE BACTERIA” (priority 2007, published 2009).

The compounds below were run on Pseudomonas aeruginosa PAO1 (assay: MBEC assay, biofilm formation of P. aeruginosa PAO1). Conditions: compound concentration 100 μM, class symbols.
Assay type: cell-based
Procedure: The compound to be tested was dissolved in DMSO to obtain a concentration that was 100 times that of the final concentration required (1 mM for the 10 μM assay and 10 mM for the 100 μM assay). 1.5 μL of the above solution was placed into each well of a 96 well plate (final volume in each well=150 μL, final DMSO concentration of 1% (v/v)).
To grow the organism and form a biofilm, a cryogenic stock of the test organism (at −70° C.) was used. A first sub-culture was streaked out onto TSA (tryptic soy agar), upon which the plate was incubated at 35±2° C. for 24 hours and stored wrapped in parafilm at 4° C. afterwards. From this first sub-culture, a second sub-culture was streaked out onto TSA. The plate was incubated at 35±2° C. for 24 hours. The second sub-culture was used within 24 hours starting from the time it was first removed from incubation. Using the second sub-culture an inoculum in 3 mL sterile water that matches a 0.5 McFarland Standard (1.5×10^8 cells per mL) was created in a glass test tube using a sterile cotton swab. 2.2 mL of this solution was diluted in 22 mL 100% TSB (tryptic soy broth) medium to a cell density of approximately […]. The diluted organism was inverted 3-5 times to achieve uniform mixing of the organism. One sample (100 μl) of the diluted organism was used for an inoculum check by serially diluting and spot plating on TSA.
To prepare a challenge plate, […] of the diluted organism was added to each well of a 96 well plate except the sterility control wells. The test compounds were added to the wells to make up final concentrations of 10 μM and […] (1.5 μL/well) in the designated location in the test plate. 128.5 μL of 100% universal neutralizer (1% Tween 80 in Cation Adjusted Mueller Hinton Broth, CAMHB) was placed in each of the wells. 130 μL of media was added to the growth control wells. 128.5 μL of media+1.5 μL of DMSO were added to a second set of growth control wells. 150 μL of media was added to the sterility controls. Each sample was run in triplicate. The plate was covered by a lid with a peg per well and wrapped in parafilm and placed on a shaker in a humidified incubator (GeneVac) at 35±+2° C. for 24 hours set at 110 rpm.
Rinse plate(s) of 0.9% saline (200 μL per well) were prepared in a sterile 96 well microtitre plate. Lid-associated pegs were rinsed in 0.9% saline for approximately 1-2 minutes. The peg lid was transferred to the recovery media (1.0% Tween 80 in CAMHB) then sonicated for 30 minutes to dislodge surviving biofilm. Following sonication, 100 μL from each well of the 96 well plate was placed into the first 12 wells of the first row of a 96 well microtiter plate. 180 μl of 0.9% sterile saline was placed in the remaining rows. A serial dilution (10^0-10^7) was prepared by moving 20 μl down each of the 8 rows. 20 μl from each well was removed and spot plated on a prepared TSA. In the remaining recovery plate, 100 μl of fresh growth media (1.0% Tween 80 in CAMHB) was placed in each well to replace the amount removed. The recovery plate was covered with a regular lid and incubated at 35±2° C. for 24 hours and read visually to confirm antimicrobial activity of the test compounds.
The compounds of the present disclosure have been tested regarding their efficiency to inhibit biofilm formation of Staphylococcus aureus U of C#18 (MRSA), Staphylococcus aureus 456 (MRSA), Staphylococcus epidermidis RP62A, and Pseudomonas aeruginosa PAO1.

First: CCCCCCCCNC(=O)CC(=O)N1CCCC(C(=O)N(CC)CC)C1 (stereo not drawn) [Example 144, N,N-diethyl-1-(3-(octylamino)-3-oxopropanoyl)piperidine-3-carboxamide]
Second: CCCCCCCCCC(=O)N1CCCC(C(=O)N(CC)CC)C1 (stereo not drawn) [Example 135, 1-decanoyl-N,N-diethylpiperidine-3-carboxamide]
The inhibition at 100 µM of the first is lower: 20 to 50% for the first, over 50% for the second.

Compared with `CCCCCCCCCCCNC(=O)Nc1cc(-c2ccccc2)nn1C` [Example 82, 1-(1-methyl-3-phenylpyrazol-5-yl)-3-undecylurea], `CCCCCCCCCCNC(=O)Nc1nc(-c2ccccc2)cs1` [Example 79, 1-decyl-3-(4-phenylthiazol-2-yl)urea] is higher in inhibition at 100 µM: under 20% for the first, 20 to 50% for the second.

`COCCOCCOCC(=O)N[C@@H](C)c1ccccc1` [Example 127, (S)-2-(2-(2-methoxyethoxy)ethoxy)-N-(1-phenylethyl)acetamide] and `CCCCOCCOCC(=O)N[C@@H](C)c1ccccc1` [Example 121, (S)-2-(2-butoxyethoxy)-N-(1-phenylethyl)acetamide] cannot be ordered by inhibition at 100 µM: under 20% for the first, under 20% for the second.

First: CCCCCCCCCC(=O)NC(=O)Nc1cc(C)ns1 [Example 101, N-(3-methylisothiazol-5-ylcarbamoyl)decanamide]
Second: CCCCCCCCCCNC(=O)Nc1cc(C)ns1 [Example 62, 1-decyl-3-(3-methylisothiazol-5-yl)urea]
The inhibition at 100 µM of the first is higher: 20 to 50% for the first, under 20% for the second.

First: CCCCCCCCCCCC(=O)N[C@@H](C)c1ccccc1 [Example 28, (S)-N-(1-phenylethyl)dodecanamide]
Second: CCCCCCCCCCCC(=O)N(C)c1ccccc1 [Example 14, N-methyl-N-phenyldodecanamide]
The inhibition at 100 µM of the first is lower: 20 to 50% for the first, over 50% for the second.

First: CCCCCCCCCC(=O)NC(=O)N(C)c1ccc(F)cc1 [Example 95, N-((4-fluorophenyl)(methyl)carbamoyl)decanamide]
Second: CCCCCCCCCOCC(=O)N(C)c1ccc(F)cc1 [Example 102, N-(4-fluorophenyl)-N-methyl-2-(nonyloxy)acetamide]
The inhibition at 100 µM of the first is higher: over 50% for the first, 20 to 50% for the second.

First: CCN(CC)C(=O)C1CCCN(C(=O)CCCCCCCCCCCSC)C1 (stereo not drawn) [Example 141, N,N-diethyl-1-(12-(methylthio)dodecanoyl)piperidine-3-carboxamide]
Second: CCN(CC)C(=O)C1CCCN(C(=O)CCCCCCCCCCCS(C)(=O)=O)C1 (stereo not drawn) [Example 142, N,N-diethyl-1-(12-(methylsulfonyl)dodecanoyl)piperidine-3-carboxamide]
The inhibition at 100 µM of the first is higher: over 50% for the first, 20 to 50% for the second.

`CCCCCCCCCCCC(=O)N1CCCC(C(N)=O)C1` (stereo not drawn) [Example 130, 1-dodecanoylpiperidine-3-carboxamide] and `CCCCCCCCCCCC(=O)N1CCCCC1CO` (stereo not drawn) [Example 37, 1-(2-(hydroxymethyl)piperidin-1-yl)dodecan-1-one] cannot be ordered by inhibition at 100 µM: over 50% for the first, over 50% for the second.

`CCCCCCCCCCNC(=O)Nc1cccc(F)c1` [Example 51, 1-decyl-3-(3-fluorophenyl)urea] and `CCCCCCCCCCNC(=O)Nc1ccccc1` [Example 48, 1-decyl-3-phenylurea] cannot be ordered by inhibition at 100 µM: under 20% for the first, under 20% for the second.

`CCCCCCCCCC(=O)N[C@H]1CCOC1=O` [Example 32, N-decanoyl-L-homoserinelactone] and `CCCCCCCCCCCC(=O)N[C@H]1CCOC1=O` [Example 33, N-dodecanoyl-L-homoserinelactone] cannot be ordered by inhibition at 100 µM: under 20% for the first, under 20% for the second.

First: CCCCCCCCCCNC(=O)N(C)c1ccccc1C(F)(F)F [Example 58, 3-decyl-1-methyl-1-(2-(trifluoromethyl)phenyl)urea]
Second: CCCCCCCCCC(=O)NC(=O)Nc1ccccc1C(F)(F)F [Example 96, N-(2-(trifluoromethyl)phenylcarbamoyl)decanamide]
The inhibition at 100 µM of the first is higher: over 50% for the first, under 20% for the second.

`CCCCCCCCCCNC(=O)Nc1nnc(-c2ccccc2)s1` [Example 77, 1-decyl-3-(5-phenyl-1,3,4-thiadiazol-2-yl)urea] and `CCCCCCCCCOCC(=O)Nc1nnc(-c2ccccc2)s1` [Example 110, 2-(nonyloxy)-N-(5-phenyl-1,3,4-thiadiazol-2-yl)acetamide] cannot be ordered by inhibition at 100 µM: under 20% for the first, under 20% for the second.

First: CCCCCCCCCCCC(=O)Nc1cc(C)nn1C(C)(C)C [Example 30, N-(1-tert-butyl-3-methylpyrazol-5-yl)dodecanamide]
Second: CCCCCCCCCC(=O)NC(=O)Nc1cc(C)nn1C [Example 100, N-(1,3-dimethylpyrazol-5-ylcarbamoyl)decanamide]
The inhibition at 100 µM of the first is higher: over 50% for the first, 20 to 50% for the second.

Going from `CCCCNC(=O)Nc1cc(C(C)(C)C)nn1C` [Example 40, 1-butyl-3-(3-tert-butyl-1-methylpyrazol-5-yl)urea] to `CCCCCCCCNC(=O)Nc1cc(C(C)(C)C)nn1C` [Example 46, 1-(3-tert-butyl-1-methylpyrazol-5-yl)-3-octylurea], the inhibition at 100 µM rises from under 20% to over 50%.

First: CCCCCCCCOCCC(=O)N[C@H]1CCOC1=O [Example 112, N-(3-octyloxypropanoyl)-L-homoserinelactone]
Second: CCCCCCCCOCCC(=O)Nc1cc(C)nn1C [Example 114, N-(1,3-dimethylpyrazol-5-yl)-3-(octyloxy)propanamide]
The inhibition at 100 µM of the first is lower: under 20% for the first, 20 to 50% for the second.

Compared with `CCCCCCCCCCCCNC(=O)Nc1cc(C2CC2)nn1C` [Example 84, 1-(3-cyclopropyl-1-methylpyrazol-5-yl)-3-dodecylurea], `CCCCCCCCCCCNC(=O)Nc1cc(C2CC2)nn1C` [Example 80, 1-(3-cyclopropyl-1-methylpyrazol-5-yl)-3-undecylurea] is higher in inhibition at 100 µM: under 20% for the first, 20 to 50% for the second.

`CCCCCCCCCCCC(=O)N(C)c1ccc(F)cc1F` [Example 22, N-(2,4-difluorophenyl)-N-methyldodecanamide] and `CCCCCCCCCCCC(=O)N(C)c1ccccc1F` [Example 16, N-(2-fluorophenyl)-N-methyldodecanamide] cannot be ordered by inhibition at 100 µM: over 50% for the first, over 50% for the second.

Compared with `CCCCCCCCNC(=O)Nc1cc(C2CC2)nn1C` [Example 45, 1-(3-cyclopropyl-1-methylpyrazol-5-yl)-3-octylurea], `CCCCNC(=O)Nc1cc(C2CC2)nn1C` [Example 39, 1-butyl-3-(3-cyclopropyl-1-methylpyrazol-5-yl)urea] is lower in inhibition at 100 µM: 20 to 50% for the first, under 20% for the second.

First: CCCCCCCCCCNC(=O)Nc1nnc(C(C)(C)C)s1 [Example 76, 1-(5-tert-butyl-1,3,4-thiadiazol-2-yl)-3-decylurea]
Second: CCCCCCCCCCNC(=O)Nc1nnc(C2CC2)s1 [Example 75, 1-(5-cyclopropyl-1,3,4-thiadiazol-2-yl)-3-decylurea]
The inhibition at 100 µM of the first is higher: over 50% for the first, 20 to 50% for the second.

First: CCCCCCCCCCCC(=O)N1CCC(C(=O)N(C(C)C)C(C)C)C1 (stereo not drawn) [Example 150, 1-dodecanoyl-N,N-diisopropylpyrrolidine-3-carboxamide]
Second: CCCCCCCCCCCC(=O)N[C@@H]1CCCC[C@H]1O (relative stereo) [Example 35, trans-N-(2-hydroxycyclohexyl)dodecanamide]
The inhibition at 100 µM of the first is higher: over 50% for the first, 20 to 50% for the second.

Going from `CCN(CC)C(=O)C1CCCN(C(=O)CCCCCCN2CCN(C)CC2)C1` (stereo not drawn) [Example 140, N,N-diethyl-1-(7-(4-methylpiperazin-1-yl)heptanoyl)piperidine-3-carboxamide] to `CCCCCCCCCOCC(=O)Nc1cc(C(C)(C)C)nn1C` [Example 107, N-(3-tert-butyl-1-methylpyrazol-5-yl)-2-(nonyloxy)acetamide], the inhibition at 100 µM rises from under 20% to over 50%.

`CCCCOCCOCC(=O)Nc1cc(C)nn1C` [Example 122, 2-(2-butoxyethoxy)-N-(1,3-dimethylpyrazol-5-yl)acetamide] and `CCCCCCCCCCCCCCCCCCNC(=O)Nc1cc(C)nn1C` [Example 92, 1-(1,3-dimethylpyrazol-5-yl)-3-octadecylurea] cannot be ordered by inhibition at 100 µM: under 20% for the first, under 20% for the second.

Compound `CCCCCCCCCCNC(=O)Nc1cc(C2CC2)n[nH]1` [Example 65, 1-(3-cyclopropylpyrazol-5-yl)-3-decylurea] has an inhibition at 100 µM of over 50%.
